The subject of data set [1] is A-site RNA oligonucleotide (SEQ ID No. 1). The format is physicochemical, E. coli. How it is done:
The effect of A-site rRNA oligonucleotide (SEQ ID No. 1) on the absorbance spectra of fluorescein-neomycin at pH 7.1 was recorded in FIG. 7. The absorbance spectra of 3.0 mM fluorescein-neomycin in 20 mM MOPSO, 0.4 mM EDTA, 50 mM NaCl at pH 7.1 with the addition of 0 mM (112), 1.1 mM (114), 2.2 mM (116) or 3.3 mM (118) of A-site oligonucleotide (SEQ ID NO. 1), respectively is shown in FIG. 7A. Absorbance at 490 nm of fluorescein-neomycin:A-site complex as function of pH is show in FIG. 7B, with 3.0 mM fluorescein-neomycin complexed with 3.3 mM A-site oligonucleotide (SEQ ID No. 1) in 20 mM MOPSO, 0.4 mM EDTA, 50 mM NaCl at the indicated pH values.
With increasing pH, fluorescein-neomycin undergoes a transition between mono-anion and di-anion species. Fluorescein-neomycin concentration was 10 μM in 100 mM NaCl, 10 mM SC, 0.5 mM EDTA. As indicated by its absorbance spectra in FIG. 8A, the F-neo transitions from a mono-anion to a di-anion with increasing pH. FIG. 8B compares the absorbance spectra between the mono-anion and di-anion species of fluorescein neomycin. […] The absorbance peak of about 490 nm in FIGS. 8A and 8B is consistent with the phenolate species of fluorescein. The pKa for the equilibrium of the phenol and phenolate forms of F-neo (42a) was measured by evaluating the absorbance spectrum as a function of pH and shown to be 6.84. […] When monitoring the absorption spectrum in the presence of the A-site RNA (SEQ ID No. 1), a reduction in A490 consistent with the change in pKa was observed. This A490 reduction is consistent with a shift in equilibrium towards the protonated non-fluorescent form of fluorescein-neomycin upon binding to A-site. […] This shift in pKa causes a change in the fluorescence intensity of F-neo (42a).
The following equilibrium can be used to explain the probe function: FHNeo+Base=F(−)Neo+BH^+ Eq. (2) where FHNeo represents the protonated form of F-neo (42a). Upon binding to A-site RNA, F(−)Neo is destabilized by the negative potential of the RNA backbone, shifting the equilibrium towards FHNeo. Thus the binding of F-neo (42a) to RNA raises the pKa, making F-neo (42a) a weaker acid.
The local electrostatic potential (Ψ) in the major groove is given by the following Equation 3. Ψ=−[R·T·ln 10/(NA·e)]ΔpKa Eq. (3) Where ΔpKa is the difference between the free Fluorescein-neomycin and the Fluorescein-neomycin in the presence of the electrostatic environment, R is the universal gas constant, T is the absolute temperature in kelvin, NA is the Avogadro constant, and e is the elementary charge. R=8.312 J mol−1K−1, T=298.2K, NA=6.023×10^23 and e=1.602×10^−19; Ψ is expressed in mV. […] Based on this Δpka of 0.86, the electrostatic potential of the microenvironment for the fluorescein moiety in the complex is determined to be −50.9 mV.

Data set [2] has as its system DNA triplex poly(dA).2poly(dT). Put plainly: Competition dialysis. The format is binding. The source says:
Disclosed is the use of fluorescent aminosugar probes such as F-neo (42a) to probe a variety of nucleic acid targets. Competition dialysis was used as a nucleic acid screening technique to illustrate the binding of F-neo (42a) to different nucleic acid structures.
Competition dialysis studies using a fluorescein-neomycin conjugate (F-neo (42a)). […] Comparative binding of F-neo (42a) to 13 different nucleic acid structures was examined which included single strand nucleic acids [poly(dT), poly(A), poly(U)], duplexes [poly(dA).poly(dT), poly(rA).poly(dT), poly(rA).poly(rU), poly(dA).poly(rU), poly(dG).poly(dC), calf thymus], triplexes [poly(dA).2poly(dT), poly(rA).2poly(rU)], i-motif (polydC) and 16S A-site rRNA (SEQ ID No. 1). The amount of F-neo (42a) bound to each nucleic acid is shown as a bar graph in FIG. 13. Because all nucleic acids are dialyzed simultaneously in the same ligand solution, the amount of bound F-neo (42a) is directly proportional to its affinity for each nucleic acid. […] 200 μL of different nucleic acids (7.5 μM per monomeric unit of each polymer) was dialyzed for 72 h with 400 mL 100 nM ligand in 6 mM Na2HPO4, 2 mM NaH2PO4, 1 mM Na2EDTA, pH 7.0 and various Na+ concentrations as indicated.
F-neo (42a) prefers to bind to 16S A-site rRNA yielding a bound ligand concentration of 85 nM in 100 mM Na^+, 50 nM in 150 mM Na^+, and 15 nM in 200 mM Na^+ is shown in FIG. 15. […]

Data set [3] concerns d(CCCCGGGG)2. Put plainly: ITC derived binding constant. Particulars: 50 mM KCl, 10 mM SC, 0.5 mM EDTA (pH 6.0) at 25° C. The source says: (§1) Determination of the pKa was done using chemometric analysis of the absorption profiles at various pH values of the covalently attached fluorescein moiety (Kubista, M., et al., (1993) Anal. Chem. 65, 994-998, Kubista, M., et al., (1995) Anal. Chim. Acta. 302, 121-125.2, 3). The pH dependent absorption profile of free fluorescein-neomycin was first analyzed to determine its pKa. […] The electrostatic potential (P) calculated from the shift in pKa, and the ITC derived binding constant (K). Electrostatic potential experiments performed in 100 mM NaCl, 10 mM SC, 0.5 mM EDTA at 25° C. ITC experiments performed in 50 mM KCl, 10 mM SC, 0.5 mM EDTA (pH 6.0) at 25° C. […] Fluorescein-neomycin concentration was 10 μM. Table 1 represents the pKa values determined from the inflection point of the pH dependent absorbance scans of free fluorescein-neomycin, fluorescein-neomycin with one molar equivalent d(CCCCGGGG)2 and d(GGGGCCCC)2. The electrostatic potential (Y) calculated from the shift in pKa, and the ITC derived binding constant (K).

In data set [4] the test system is d(GGGGCCCC)2. Put plainly: ITC derived binding constant. Particulars: 50 mM KCl, 10 mM SC, 0.5 mM EDTA (pH 6.0) at 25° C.
Source text: as §1

Structures are written as SMILES.

For `NCC1O[C@H](OC2C(O)C(OC3C(O)[C@H](N)CC(N)[C@H]3O[C@H]3OC(CN)[C@@H](O)C(O)C3N)O[C@@H]2CSCCNC(=O)CCSCC(=O)Nc2ccc(-c3c4ccc(=O)cc-4oc4cc(O)ccc34)c(C(=O)O)c2)C(N)C(O)[C@@H]1O` (some centres unmarked) [F-neo (42a), Neomycin-Fluorescein Conjugate], the “electrostatic potential of the microenvironment for the fluorescein moiety in the complex” value in data set [1] (calculated from Δpka (Eq. 3)) is on record as −50.9 mV. Besides, in data set [1] (complex versus free probe), the Δpka stood at 0.86. Further, the “apparent pKa of F-neo/A-site oligonucleotide complex” value in data set [1] (pH-dependent absorbance spectra) worked out at 7.7. For the same molecule, the “upward shift of the pKa upon binding of A-site” value in data set [1] (titration curve of A490) is reported as “approximately one”. Further, in data set [2] (100 mM Na^+, ambient temperature (˜22° C.), triplex not formed), the “binding to poly(dA).2poly(dT)” value is listed as “absence of F-neo (42a) binding”. The bound drug in data set [2] (under these salt conditions (100-200 mM Na^+)) lay within 10 to 20 nM. Also, the “K (M^−1) × 10^5” value is 7.97 ± 10.9 (M^−1) × 10^5 in data set [3] and 66.3 ± 9.7 (M^−1) × 10^5 in data set [4].
